Test results published in PubChem BioAssay AID2060620 (Molecular Pharmacology Branch, DTP, NCI, 2025).

Test system: 328373-195-R-J1-PDC complex spheroids, viability % test/control
Assay: Anticancer human tumor 328373-195-R-J1-PDC patient-derived head and neck squamous carcinoma cell line growth inhibition [CLK]
Settings: for IC50: curve of first compound; for viability, T/C: stronger effect = lower value
In short: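 Multi-cell-type spheroids combined patient-derived tumor cells with HUVEC endothelial cells and human mesenchymal stem cells. Paired agents were dosed in half-log steps down from about clinical Cmax, or from 10 microM where Cmax was unknown.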

[1] = second compound 0.0316 µM, first compound 0.0316 µM
[2] = second compound 0.0316 µM, first compound 0.1 µM
[3] = second compound 0.0316 µM, first compound 0.316 µM
[4] = second compound 0.0316 µM, first compound 1 µM
[5] = second compound 0.0316 µM, first compound 3.16 µM
[6] = second compound 0.0316 µM, first compound 10 µM
[7] = second compound 0.1 µM, first compound 0.0316 µM
[8] = second compound 0.1 µM, first compound 0.1 µM
[9] = second compound 0.1 µM, first compound 0.316 µM
[10] = second compound 0.1 µM, first compound 1 µM
[11] = second compound 0.1 µM, first compound 3.16 µM
[12] = second compound 0.1 µM, first compound 10 µM
[13] = second compound 0.316 µM, first compound 0.0316 µM
[14] = second compound 0.316 µM, first compound 0.1 µM
[15] = second compound 0.316 µM, first compound 0.316 µM
[16] = second compound 0.316 µM, first compound 1 µM
[17] = second compound 0.316 µM, first compound 3.16 µM
[18] = second compound 0.316 µM, first compound 10 µM
[19] = second compound 1 µM, first compound 0.0316 µM
[20] = second compound 1 µM, first compound 0.1 µM
[21] = second compound 1 µM, first compound 0.316 µM
[22] = second compound 1 µM, first compound 1 µM
[23] = second compound 1 µM, first compound 3.16 µM
[24] = second compound 1 µM, first compound 10 µM
[25] = second compound 3.16 µM, first compound 0.0316 µM
[26] = second compound 3.16 µM, first compound 0.1 µM
[27] = second compound 3.16 µM, first compound 0.316 µM
[28] = second compound 3.16 µM, first compound 1 µM
[29] = second compound 3.16 µM, first compound 3.16 µM
[30] = second compound 3.16 µM, first compound 10 µM
[31] = second compound 10 µM, first compound 0.0316 µM
[32] = second compound 10 µM, first compound 0.1 µM
[33] = second compound 10 µM, first compound 0.316 µM
[34] = second compound 10 µM, first compound 1 µM
[35] = second compound 10 µM, first compound 3.16 µM
[36] = second compound 10 µM, first compound 10 µM
[37] = second compound 0.0316 µM, first compound 0.00316 µM
[38] = second compound 0.0316 µM, first compound 0.01 µM
[39] = second compound 0.1 µM, first compound 0.00316 µM
[40] = second compound 0.1 µM, first compound 0.01 µM
[41] = second compound 0.316 µM, first compound 0.00316 µM
[42] = second compound 0.316 µM, first compound 0.01 µM
[43] = second compound 1 µM, first compound 0.00316 µM
[44] = second compound 1 µM, first compound 0.01 µM
[45] = second compound 3.16 µM, first compound 0.00316 µM
[46] = second compound 3.16 µM, first compound 0.01 µM
[47] = second compound 10 µM, first compound 0.00316 µM
[48] = second compound 10 µM, first compound 0.01 µM
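Also: spheroids exposed to the agents for 7 days.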

SMILES: C#Cc1c(F)ccc2cc(O)cc(-c3ncc4c(N5CC6CCC(C5)N6)nc(OCC56CCCN5CC(F)C6)nc4c3F)c12 (stereo not given) + CNC(=O)c1ccc(Nc2nc(OC3CCCC3)c3c(-c4ccc5nc(C)oc5c4)c[nH]c3n2)c(OC)c1
- IC50 (second compound 0.0316 µM): 5140 nM
- IC50 (second compound 0.1 µM): < 31.6 nM
- IC50 (second compound 0.316 µM): < 31.6 nM
- IC50 (second compound 1 µM): < 31.6 nM
- IC50 (second compound 3.16 µM): < 31.6 nM
- IC50 (second compound 10 µM): < 31.6 nM
- viability, T/C [1]: 68.5%
- viability, T/C [2]: 63.2%
- viability, T/C [3]: 60.2%
- viability, T/C [4]: 65%
- viability, T/C [5]: 62.6%
- viability, T/C [6]: 32.6%
- viability, T/C [7]: 11.3%
- viability, T/C [8]: 10.5%
- viability, T/C [9]: 7.58%
- viability, T/C [10]: 11.6%
- viability, T/C [11]: 9.36%
- viability, T/C [12]: 7.63%
- viability, T/C [13]: 8.02%
- viability, T/C [14]: 9.37%
- viability, T/C [15]: 9.67%
- viability, T/C [16]: 8.78%
- viability, T/C [17]: 7.32%
- viability, T/C [18]: 5.64%
- viability, T/C [19]: 10%
- viability, T/C [20]: 11.6%
- viability, T/C [21]: 8.24%
- viability, T/C [22]: 9.01%
- viability, T/C [23]: 8.47%
- viability, T/C [24]: 5.54%
- viability, T/C [25]: 9.2%
- viability, T/C [26]: 8.8%
- viability, T/C [27]: 9.68%
- viability, T/C [28]: 9.11%
- viability, T/C [29]: 9.06%
- viability, T/C [30]: 6.06%
- viability, T/C [31]: 10.7%
- viability, T/C [32]: 11.8%
- viability, T/C [33]: 10.1%
- viability, T/C [34]: 10.3%
- viability, T/C [35]: 10.5%
- viability, T/C [36]: 4.63%

SMILES: CC(CO)NC(=O)c1cc(-c2ccc(Cl)cc2)nn(-c2cnn(C)c2)c1=O (stereo not given) + CNC(=O)c1ccc(Nc2nc(OC3CCCC3)c3c(-c4ccc5nc(C)oc5c4)c[nH]c3n2)c(OC)c1
- IC50 (second compound 0.0316 µM): > 10000 nM
- IC50 (second compound 0.1 µM): < 31.6 nM
- IC50 (second compound 0.316 µM): < 31.6 nM
- IC50 (second compound 1 µM): < 31.6 nM
- IC50 (second compound 3.16 µM): < 31.6 nM
- IC50 (second compound 10 µM): < 31.6 nM
- viability, T/C [1]: 76.2%
- viability, T/C [2]: 80.8%
- viability, T/C [3]: 73%
- viability, T/C [4]: 90.8%
- viability, T/C [5]: 73.6%
- viability, T/C [6]: 62.9%
- viability, T/C [7]: 16.1%
- viability, T/C [8]: 12.2%
- viability, T/C [9]: 11.9%
- viability, T/C [10]: 14.1%
- viability, T/C [11]: 16.1%
- viability, T/C [12]: 12.8%
- viability, T/C [13]: 10.9%
- viability, T/C [14]: 10.5%
- viability, T/C [15]: 11.2%
- viability, T/C [16]: 11.8%
- viability, T/C [17]: 11.4%
- viability, T/C [18]: 12%
- viability, T/C [19]: 8.66%
- viability, T/C [20]: 9.73%
- viability, T/C [21]: 9.96%
- viability, T/C [22]: 10.2%
- viability, T/C [23]: 9.14%
- viability, T/C [24]: 8.61%
- viability, T/C [25]: 13.6%
- viability, T/C [26]: 10.9%
- viability, T/C [27]: 8.97%
- viability, T/C [28]: 10.1%
- viability, T/C [29]: 12.7%
- viability, T/C [30]: 10.7%
- viability, T/C [31]: 12.9%
- viability, T/C [32]: 9.53%
- viability, T/C [33]: 11.4%
- viability, T/C [34]: 12.1%
- viability, T/C [35]: 13.2%
- viability, T/C [36]: 11.7%

SMILES: CC(Nc1ccc2c(c1)OCCn1cc(N3C(=O)OCC3C(F)F)nc1-2)C(N)=O (stereo not given) + CNC(=O)c1ccc(Nc2nc(OC3CCCC3)c3c(-c4ccc5nc(C)oc5c4)c[nH]c3n2)c(OC)c1
- IC50 (second compound 0.0316 µM): 5300 nM
- IC50 (second compound 0.1 µM): < 31.6 nM
- IC50 (second compound 0.316 µM): < 31.6 nM
- IC50 (second compound 1 µM): < 31.6 nM
- IC50 (second compound 3.16 µM): < 31.6 nM
- IC50 (second compound 10 µM): < 31.6 nM
- viability, T/C [1]: 64.5%
- viability, T/C [2]: 63%
- viability, T/C [3]: 56.1%
- viability, T/C [4]: 61.7%
- viability, T/C [5]: 57%
- viability, T/C [6]: 41.6%
- viability, T/C [7]: 12.4%
- viability, T/C [8]: 12.9%
- viability, T/C [9]: 11.3%
- viability, T/C [10]: 13.8%
- viability, T/C [11]: 10.4%
- viability, T/C [12]: 10.2%
- viability, T/C [13]: 10.3%
- viability, T/C [14]: 11%
- viability, T/C [15]: 12.6%
- viability, T/C [16]: 9.39%
- viability, T/C [17]: 9.16%
- viability, T/C [18]: 11.8%
- viability, T/C [19]: 12%
- viability, T/C [20]: 10.1%
- viability, T/C [21]: 9.86%
- viability, T/C [22]: 10.9%
- viability, T/C [23]: 10.3%
- viability, T/C [24]: 10.2%
- viability, T/C [25]: 11.7%
- viability, T/C [26]: 11%
- viability, T/C [27]: 11.4%
- viability, T/C [28]: 8.89%
- viability, T/C [29]: 13.5%
- viability, T/C [30]: 8.5%
- viability, T/C [31]: 11.8%
- viability, T/C [32]: 11.6%
- viability, T/C [33]: 10.7%
- viability, T/C [34]: 11.9%
- viability, T/C [35]: 13.7%
- viability, T/C [36]: 11%

SMILES: CCN1CCN(Cc2ccc(Nc3ncc(F)c(-c4cc(F)c5nc(C)n(C(C)C)c5c4)n3)nc2)CC1 + CNC(=O)c1ccc(Nc2nc(OC3CCCC3)c3c(-c4ccc5nc(C)oc5c4)c[nH]c3n2)c(OC)c1
- IC50 (second compound 0.0316 µM): 54.9 nM
- IC50 (second compound 0.1 µM): < 3.16 nM
- IC50 (second compound 0.316 µM): < 3.16 nM
- IC50 (second compound 1 µM): < 3.16 nM
- IC50 (second compound 3.16 µM): < 3.16 nM
- IC50 (second compound 10 µM): < 3.16 nM
- viability, T/C [37]: 53.3%
- viability, T/C [38]: 60.8%
- viability, T/C [1]: 46.3%
- viability, T/C [2]: 48.5%
- viability, T/C [3]: 44.6%
- viability, T/C [4]: 36.1%
- viability, T/C [39]: 12.7%
- viability, T/C [40]: 11.1%
- viability, T/C [7]: 13.1%
- viability, T/C [8]: 13.4%
- viability, T/C [9]: 15.7%
- viability, T/C [10]: 19.4%
- viability, T/C [41]: 11.2%
- viability, T/C [42]: 11.9%
- viability, T/C [13]: 11.8%
- viability, T/C [14]: 12.6%
- viability, T/C [15]: 17.2%
- viability, T/C [16]: 14.6%
- viability, T/C [43]: 9.58%
- viability, T/C [44]: 12%
- viability, T/C [19]: 12.7%
- viability, T/C [20]: 12.3%
- viability, T/C [21]: 14.1%
- viability, T/C [22]: 15.2%
- viability, T/C [45]: 12%
- viability, T/C [46]: 10.5%
- viability, T/C [25]: 12.8%
- viability, T/C [26]: 15%
- viability, T/C [27]: 15.9%
- viability, T/C [28]: 16.7%
- viability, T/C [47]: 14.5%
- viability, T/C [48]: 11.4%
- viability, T/C [31]: 15.1%
- viability, T/C [32]: 15.1%
- viability, T/C [33]: 17.6%
- viability, T/C [34]: 13.1%

SMILES: COc1c(OCCCN2CCOCC2)ccc2c3n(c(=NC(=O)c4cnc(N)nc4)nc12)CCN3 + CNC(=O)c1ccc(Nc2nc(OC3CCCC3)c3c(-c4ccc5nc(C)oc5c4)c[nH]c3n2)c(OC)c1
- IC50 (second compound 0.0316 µM): 141 nM
- IC50 (second compound 0.1 µM): < 3.16 nM
- IC50 (second compound 0.316 µM): < 3.16 nM
- IC50 (second compound 1 µM): < 3.16 nM
- IC50 (second compound 3.16 µM): < 3.16 nM
- IC50 (second compound 10 µM): < 3.16 nM
- viability, T/C [37]: 68.3%
- viability, T/C [38]: 67.3%
- viability, T/C [1]: 68.2%
- viability, T/C [2]: 60.7%
- viability, T/C [3]: 24.9%
- viability, T/C [4]: 8.91%
- viability, T/C [39]: 10.9%
- viability, T/C [40]: 12.2%
- viability, T/C [7]: 11.8%
- viability, T/C [8]: 12.3%
- viability, T/C [9]: 7.7%
- viability, T/C [10]: 6.41%
- viability, T/C [41]: 10.6%
- viability, T/C [42]: 11.2%
- viability, T/C [13]: 10%
- viability, T/C [14]: 9.38%
- viability, T/C [15]: 6.22%
- viability, T/C [16]: 5.91%
- viability, T/C [43]: 9.61%
- viability, T/C [44]: 10.8%
- viability, T/C [19]: 10.5%
- viability, T/C [20]: 9.83%
- viability, T/C [21]: 7.75%
- viability, T/C [22]: 4.65%
- viability, T/C [45]: 9.58%
- viability, T/C [46]: 11.5%
- viability, T/C [25]: 10.6%
- viability, T/C [26]: 9.71%
- viability, T/C [27]: 8.29%
- viability, T/C [28]: 7.29%
- viability, T/C [47]: 12.8%
- viability, T/C [48]: 11%
- viability, T/C [31]: 13.6%
- viability, T/C [32]: 11.9%
- viability, T/C [33]: 8.72%
- viability, T/C [34]: 5.52%
